# Laboratory results published in BindingDB's records for patent US20240316047 (Accent Therapeutics, 2024).
# Target: ATP-dependent RNA helicase A (UniProt Q08211)
# Assay: Biochemical Assay
# ATP-dependent RNA helicase A, sequence (Q08211 whole entry): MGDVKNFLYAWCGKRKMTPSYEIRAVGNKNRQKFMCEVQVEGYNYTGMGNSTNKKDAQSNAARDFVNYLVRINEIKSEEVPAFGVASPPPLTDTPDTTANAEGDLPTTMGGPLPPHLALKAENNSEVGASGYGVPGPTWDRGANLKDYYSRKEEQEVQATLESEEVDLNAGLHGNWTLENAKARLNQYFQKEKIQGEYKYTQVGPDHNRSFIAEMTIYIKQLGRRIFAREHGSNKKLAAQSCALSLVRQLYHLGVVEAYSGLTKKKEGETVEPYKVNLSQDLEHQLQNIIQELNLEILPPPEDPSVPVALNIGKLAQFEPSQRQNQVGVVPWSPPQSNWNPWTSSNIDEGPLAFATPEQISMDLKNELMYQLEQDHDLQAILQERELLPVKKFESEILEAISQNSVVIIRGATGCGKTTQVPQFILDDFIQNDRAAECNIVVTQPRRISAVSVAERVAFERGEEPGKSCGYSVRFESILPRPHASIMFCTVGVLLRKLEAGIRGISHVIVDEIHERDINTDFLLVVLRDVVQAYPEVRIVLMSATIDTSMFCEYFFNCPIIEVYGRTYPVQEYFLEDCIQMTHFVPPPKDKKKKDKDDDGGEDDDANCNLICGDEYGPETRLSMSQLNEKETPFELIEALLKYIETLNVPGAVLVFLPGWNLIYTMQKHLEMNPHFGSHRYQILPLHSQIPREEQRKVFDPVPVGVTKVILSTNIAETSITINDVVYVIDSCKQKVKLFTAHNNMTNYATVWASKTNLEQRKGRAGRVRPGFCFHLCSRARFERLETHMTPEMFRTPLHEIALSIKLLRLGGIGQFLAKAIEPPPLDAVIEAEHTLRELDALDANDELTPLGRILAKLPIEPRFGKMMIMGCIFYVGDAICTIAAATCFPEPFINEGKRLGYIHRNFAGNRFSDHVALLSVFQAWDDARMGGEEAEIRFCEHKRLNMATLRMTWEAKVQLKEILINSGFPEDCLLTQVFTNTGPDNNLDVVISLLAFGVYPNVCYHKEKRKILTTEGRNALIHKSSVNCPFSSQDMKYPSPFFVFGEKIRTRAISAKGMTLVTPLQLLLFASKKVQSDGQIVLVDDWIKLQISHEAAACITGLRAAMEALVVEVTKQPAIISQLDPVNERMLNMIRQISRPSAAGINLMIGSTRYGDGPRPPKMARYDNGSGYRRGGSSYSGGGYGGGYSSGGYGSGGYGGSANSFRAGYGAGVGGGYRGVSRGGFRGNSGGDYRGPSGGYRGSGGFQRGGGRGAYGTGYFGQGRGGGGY
row,IC50 [nM],SMILES
1,38.4,"Cc1cc(C(=O)Nc2cc(Cl)cc(NS(C)(=O)=O)c2)cn1-c1ccccc1 [US20240316047, Example 129]"
2,234,"CC(C)(C)OC(=O)N1CCC(n2cc(C(=O)Nc3cc(Cl)cc(NS(C)(=O)=O)c3)cn2)CC1 [US20240316047, Example 136]"
3,51.1,"Cc1cccnc1-c1cc(C(=O)Nc2cc(Cl)cc(NS(C)(=O)=O)c2)cn1CC(F)F [US20240316047, Example 143]"
4,10.8,"Cc1sc(C(=O)Nc2cc(Cl)cc(NS(C)(=O)=O)c2)cc1-c1ncc(N2CCC3(C2)CC3(F)F)cn1 (centres undefined) [US20240316047, Example 491]"
